One block for each molecule: values may come before it.
How the values were obtained:
[1] = target: T1, L-arginine deiminase (ADI) from Penicillium chrysogenum; experiment: ammonia release, Nessler's reagent, […] nm; residual activity at […]; assay type: biochemical
T1 construct: single 49 kDa band on SDS-PAGE

[2] = system: T1, L-arginine deiminase (ADI) from Penicillium chrysogenum; experiment: ammonia release, Nessler's reagent, […] nm; Eadie-Hofstee plot; assay type: biochemical; conditions: 40 °C, 30 min; phosphate buffer pH 7.5 in the standard assay
[3] = chelator in the reaction mixture, L-arginine as substrate, 40 °C

Compound: CN(C)c1cccc2c(S(=O)(=O)Cl)cccc12 [dansyl chloride]
IC50 ([1]; covalent, lysyl modifier, 100 mM Tris-HCl pH 7.0, 4 °C, 1 h): 6.48 mM

Compound: c1cnc2c(c1)ccc1cccnc12 [o-phenanthroline]
IC50 [1, 3]: 4.79 mM

Compound: CC(=O)n1ccnc1 [N-acetyl-imidazole]
IC50 ([1]; covalent, tyrosyl modifier, 150 mM phosphate pH 7.5, 37 °C, 20 min): 5.4 mM

Compound: c1ccc(-c2ccccn2)nc1 [α,α-dipyridyl]
IC50 [1, 3]: 7.46 mM

Compound: N=C(N)NCCC[C@H](N)C(=O)O [L-arginine]
Km [2]: 750 µM

Compound: CCN1C(=O)C=CC1=O [N-ethylmaleimide]
IC50 ([1]; covalent, sulfhydryl modifier, pre-incubated 1 h at 25 °C, 100 mM Tris-HCl pH 5.0, 1 mM EDTA): 4.95 mM

Second part, the molecule after the results:

IC50 ([1]; covalent, tryptophanyl modifier, 1 h in 150 mM phosphate pH 7.5, then dialysed before assay): 5 mM
Compound: O=C1CCC(=O)N1Br [N-bromosuccinimide]

IC50 ([1]; covalent, histidyl modifier, assay buffer, 25 °C, 5 min): 6.44 mM
Compound: CCOC(=O)OC(=O)OCC [diethylpyrocarbonate]

IC50 ([1]; covalent, arginyl modifier, 50 mM sodium borate pH 7.0, room temperature): 4.66 mM
Compound: CC(=O)C(C)=O [butanedione]

IC50 [1, 3]: 5.19 mM
Compound: O=C(O)CN(CCN(CC(=O)O)CC(=O)O)CC(=O)O [EDTA]
